According to patent publication US20260356860A1, “2-SUBSTITUTED 3,4A,5,7,8,8A-HEXAHYDRO-4H-THIOPYRANO[4,3-DJPYRIMIDIN-4-ONES FOR WOUND TREATMENT” (priority 2022, published 2026):

Tests used:
[1] = system: 8 mm ear punch wound; experiment: Rabbit ear punch: rate of ear closure; format: in vivo; settings: after day 4; phospholipid spray
Description: (§1) Compounds of Formula (I) were tested and compared to saline control in elastic cartilage regeneration tests. Rabbit ears were punched through and through with an 8 mm punch. 4 holes were punched in each ear of the specimen (four positions L1, L2, L3, and L4 in the left ear and four positions R5, R6, R7, and R8 in right ear). Saline was applied via a spray on the control specimen, Compound 8 was applied via a phospholipid spray on another specimen, and Compound 18 was applied via a phospholipid spray on yet another specimen. The phospholipid spray contained compound (45 mg), butylene glycol (2 mL), polysorbate 20 (2 mL), phosphotidyl choline (0.5 g), ethanol (2 mL), and ultra pure water (40 mL).
FIG. 4 provides photographs of the wounds after treatment with saline, compound 8, or compound 18 on Days 0 and 23. Ear punch area related to wound closure was measured at 2- to 3-day intervals from day 0 to day 39.

[2] = system: elastic cartilage; experiment: Elastic cartilage regeneration in rabbit ear punch wounds (stained cross sections, day 45); format: in vivo; settings: for average distance between opposing cartilage endplates: original 8 mm wound margin, saline 6 mm; for average cartilage growth upon closure of the wound: saline 2 mm; for average cartilage tissue regrowth: saline about 25%; for cartilage regeneration by histology: versus control
Description: as §1
At day 45, the tests were stopped and the tissue was processed. An embed cut was made across the center point of the healed wounds in each site (FIG. 7, top). A slide was used to obtain sectioned tissue sample for staining and imaging (FIG. 7, bottom).
After staining with either Safronin O or Trichrome Blue, the distance between the opposing cartilage endplates was measured. From the original 8 mm wound margin distance, the saline control averaged 6 mm of distance between opposing cartilage endplates (FIG. 8), or 2 mm of average cartilage growth upon closure of the wound (about 25% average cartilage tissue regrowth). Compounds of Formula (I) (Compound 8 and Compound 18) provided about 2-3 mm average distance between opposing cartilage endplates (FIG. 8), or […] of average cartilage growth upon closure of the wound (about 68-75% average cartilage tissue regrowth).
FIGS. 9-11 display the original 8 mm wound margin (top, two vertical gray lines) and in an inset (bottom left, curved gray line). FIGS. 9-11 show expanded views of the cartilage regeneration site where chondrocytes are newly formed within the wound margin. Comparing FIG. 10 (Compound 8) and FIG. 11 (Compound 18) to FIG. 9 (control), cartilage regeneration using compounds of Formula (I) was confirmed.

[3] = system: full thickness open excisional wounds; experiment: Full thickness open excisional wound healing study; format: in vivo, Yucatan Miniature Swine; settings: day 3 to day 22
Description: (§2) A 21-day full thickness open excisional wound healing study was conducted on Yucatan™ Miniature Swine (Sinclair BioResources, Auxvasse, Missouri, USA) to evaluate the efficacy of healing and local tissue reaction of compounds of Formula (I). Compounds and controls were topically administered on full thickness open excisional wounds once every other day (total 11 doses).
The negative control for this study was saline (0.9%). The tes compositions for these studies are described as follows.
The test composition in the full thickness open excisional wound studies for compounds without GO-HA (no GO-HA added) was a mixture with an overall concentration of 0.25 to 0.27 mg/mL of the respective compound in serum formulation as follows: compound (10 mg), butylene glycol (1.80 mL), polysorbate 20 (1.80 mL), phosphatidyl choline (0.44 g), ethanol (1.80 mL), ultra pure water (30 mL), and hydroxypropyl cellulose (0.285 g).
The test composition in the full thickness open excisional wounds studies for compounds with GO-HA (Compound+GO-HA) was a mixture with an overall concentration of 1.0 mg/mL of the respective compound and 1.0 mg/mL of GO-HA in serum formulation as follows: compound (35 mg), butylene glycol (1.8 mL), polysorbate 20 (1.8 mL), phosphotidyl choline (0.44 g), ethanol (1.8 mL), GO-HA (35 mg), ultra pure water (30 mL), and hydroxypropyl cellulose (0.285 g). […]

[4] = system: full thickness excisional wounds; experiment: Rete ridge formation (full thickness wound healing study); format: in vivo, Yucatan Miniature Swine; settings: rete ridge/mm
Description: as §2
Additional tests were performed including elasticity (Table 12); max force (Table 13); tensile strength (strain) (Table 14); energy peak (Table 15); rete-ridge formation; and collagen organization (plane polarized light) (FIG. 24) of the healed wound sites, described as follows.
Improved rete ridge formation is described as epithelial extensions that project into the underlying connective tissue in both skin and mucous membrances—improved rete ridge formation is a sign of tissue regeneration rather than fibrosis/scarring (reduced rete ridge formation).

Compound | rate of ear closure versus control [1] | average distance between opposing cartilage endplates [2] | average cartilage growth upon closure of the wound [2] | average cartilage tissue regrowth [2] | cartilage regeneration by histology [2] | wound healing throughout the entire test [3] | rete ridge formation compared to the saline control [4]
COC(=O)NCCOC(C)(C)c1ccc(-c2nc3c(c(=O)[nH]2)CSCC3)cc1 [Compound 18, methyl (2-((2-(4-(4-oxo-3,5,7,8-tetrahydro-4H-thiopyrano[4,3-d]pyrimidin-2-yl)phenyl)propan-2-yl)oxy)ethyl)carbamate] | improved the rate of ear closure over the control | 2-3 mm | 5.5-6 mm | 68-75% | newly formed chondrocytes are more numerous and larger than in the control | – | –
CC(C)(OCCO)c1ccc(-c2nc3c(c(=O)[nH]2)CSCC3)cc1 [Compound 8, 2-(4-(2-(2-hydroxyethoxy)propan-2-yl)phenyl)-3,5,7,8-tetrahydro-4H-thiopyrano[4,3-d]pyrimidin-4-one] | improved the rate of ear closure over the control | 2-3 mm | 5.5-6 mm | 68-75% | newly formed chondrocytes are more numerous and larger than in the control | improved wound healing throughout the entire test | improved wound healing compared to the saline control (rete ridge/mm)
O=c1[nH]c(-c2ccc(-c3ccc(Br)nc3)cc2)nc2c1CSCC2 [Compound 7, 2-(4-(6-bromopyridin-3-yl)phenyl)-3,5,7,8-tetrahydro-4H-thiopyrano [4,3-d]pyrimidin-4-one] | – | – | – | – | – | improved wound healing throughout the entire test | improved wound healing compared to the saline control (rete ridge/mm)
